The text below walks through data of article PMC1373645, “Lactate production yield from engineered yeasts is dependent from the host background, the lactate dehydrogenase source and the lactate export” (Microbial Cell Factories, 2006).

This assay concerns the target T1, bovine Ldh-A (BtLDH) (Bos taurus, UniProt P19858).
T1 construct: gene LDHA; full length, untagged, expressed in S. cerevisiae GRF18U; crude cell extract; homotetramer
In words: LDH activity of crude yeast extract with added lactate (Sigma kit DG1340-UV). Particulars: read-out: % inhibition at 10 g/l. It counts as biochemical.

Regarding `C[C@H](O)C(=O)O` [lactate], the inhibition at 10000 µg/mL is about 40%.
